Experimental data: patent US20260272907A1, “Therapeutic Tyrosine Kinase Inhibitors for Multiple Sclerosis” (Principia Biopharma Inc., priority 2022, published 2026)

Tests used:
[1] = system: patients with relapsing multiple sclerosis; experiment: Phase 2b dose-finding study: total number of Gd-enhancing T1-hyperintense lesions by brain MRI; details: for Count of Gd-enhancing T1-hyperintense lesions, observed mean (SD): 12 weeks of treatment
Protocol: New T1 Gd-enhancing hyperintense and new and enlarging T2 lesions are evaluated at each visit as per the SoA (Table 1), comparing lesion count to that from the previous MRI scan. Unless specified otherwise, the baseline brain MRI is used as the reference to assess all MRI-derived endpoints. The baseline MRI is the last MRI performed before the randomization visit. Standardized endpoint evaluation is assured by central review of brain MRI scans. Blinded central review is performed for all MRI-derived endpoints. Magnetic resonance imaging reviewers are blinded to treatment assignments and to other participant data.
As it is reasonable to assume a constant rate of lesion formation over 12 weeks under placebo for total number of Gd-enhancing T1-hyperintense lesions, the same approach as that utilized for the primary endpoint is used, by using the Week 4 data in Cohort 2 as the Week 12 placebo data while accounting for the within-participant correlation. Descriptive summary statistics over time is provided for each of the 4 BTK inhibitor doses.
For each secondary endpoint, a similar negative binomial model and the MCP-Mod procedure were used. As it is reasonable to assume a constant rate of lesion formation over 12 weeks under placebo treatment, the same approach as that utilized for the primary endpoint was used, i.e., using the Week 4 data in Cohort 2 as the Week 12 placebo data while accounting for within-participant correlation. Descriptive summary statistics over time were provided for each of the 4 BTK inhibitor dose groups.

CYP2C8 = target: T1, CYP2C8 (Homo sapiens, UniProt P10632); experiment: Preclinical drug metabolism studies: CYP2C8; assay type: in vitro ADME
T1 sequence (P10632 1-490): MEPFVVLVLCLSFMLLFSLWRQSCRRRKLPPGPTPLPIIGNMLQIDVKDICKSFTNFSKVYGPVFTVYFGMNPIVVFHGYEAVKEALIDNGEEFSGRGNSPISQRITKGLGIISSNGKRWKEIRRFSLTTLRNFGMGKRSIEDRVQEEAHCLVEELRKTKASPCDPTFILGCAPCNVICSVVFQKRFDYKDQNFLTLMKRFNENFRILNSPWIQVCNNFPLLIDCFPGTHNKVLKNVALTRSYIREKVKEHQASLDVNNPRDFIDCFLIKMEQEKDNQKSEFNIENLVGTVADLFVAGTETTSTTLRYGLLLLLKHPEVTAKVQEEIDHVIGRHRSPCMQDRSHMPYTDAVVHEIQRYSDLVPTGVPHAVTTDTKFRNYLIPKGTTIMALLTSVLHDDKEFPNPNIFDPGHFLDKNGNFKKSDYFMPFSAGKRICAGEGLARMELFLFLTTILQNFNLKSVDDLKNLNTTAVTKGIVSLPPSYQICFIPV
Description: See Table 12 for the list of drugs not to be used.

[2] = system: patients with relapsing multiple sclerosis; experiment: Long-term safety extension: T2 lesion volume change from baseline (MRI); assay type: in vivo, human; details: for Volume of new or enlarging T2 lesions, Mean (SD): in cm³
Protocol: (§1) In the current open-label extension Part B, all patients receive 60 mg/day. MRI outcomes include numbers of new Gd-enhancing and new/enlarging T2 lesions, T2 lesion volume change from baseline, slowly evolving lesions (SEL), and paramagnetic rim lesions (PRL).
(§2) The Week 0 value is from the last MRI obtained in the dose-finding study if performed within 6 weeks prior to Day 1 of the long-term safety study For some patients the Week 0 value began after a gap period ranging from 0-21 weeks. For patients where the gap period was 0 weeks, the Week 0 value began immediately after the completion of Week 16 of the dose-finding study. For patients where the gap period was greater than 6 weeks a new MRI was obtained prior to Day 1 of the long-term safety study.
(§3) If from Week 16 of the dose-finding study (Cohort 2), it is also included in Week 12. If from Week 16 of the dose-finding study (Cohort 1), it is after 4 weeks placebo run out.

[3] = system: patients with relapsing multiple sclerosis; experiment: Long-term safety extension: number of new T1 non-enhancing (hypointense) lesions (MRI); assay type: in vivo, human
Protocol: as §1, §2, §3

CD19+ B-cell = experiment: Phase 1: absolute CD19+ B-cell counts
patients with RMS = experiment: Ongoing tolebrutinib Phase 3 trials: drug-induced liver injury; assay type: in vivo, human; details: ongoing Phase 3 trials
Description: Drug-induced liver injury has been identified in the ongoing tolebrutinib Phase 3 trials. The reported events occurred between months 2 to 3 after the start of tolebrutinib administration, and the elevation of liver enzymes appears reversible after tolebrutinib discontinuation. Thus, there is a need to mitigate the risk of hepatic injury and provide safe treatment for patients with RMS.

[4] = system: patients with relapsing multiple sclerosis; experiment: Long-term safety extension: number of new or enlarging T2 lesions (MRI); assay type: in vivo, human
Protocol: as §1, §2, §3

[5] = 5 mg daily, after 12 weeks of treatment
[6] = 15 mg daily, after 12 weeks of treatment
[7] = 30 mg daily, after 12 weeks of treatment
[8] = 60 mg daily, after 12 weeks of treatment

## C=CC(=O)N1CCC[C@@H](n2c(=O)n(-c3ccc(Oc4ccccc4)cc3)c3c(N)nccc32)C1 [the BTK inhibitor, (R)-1-(1-acryloylpiperidin-3-yl)-4-amino-3-(4-phenoxyphenyl)-1H-imidazo[4,5-c]pyridin-2(3H)-one]
[1]; [5]
  Total Gd-enhancing T1-hyperintense lesion count, Mean: 1.77
  Total Gd-enhancing T1-hyperintense lesion count, Median: 0.00
[1]; 5 mg once daily
  Count of Gd-enhancing T1-hyperintense lesions, observed mean (SD): 1.77 (4.10)
[1]; [6]
  Patients with 2 total Gd-enhancing T1-hyperintense lesions: 0 n
  Total Gd-enhancing T1-hyperintense lesion count, Mean: 0.87
  Total Gd-enhancing T1-hyperintense lesion count, Median: 0.00
[1]; 15 mg once daily
  Count of Gd-enhancing T1-hyperintense lesions, observed mean (SD): 0.87 (1.59)
[1]; [7]
  Total Gd-enhancing T1-hyperintense lesion count, Mean: 1.18
  Total Gd-enhancing T1-hyperintense lesion count, Median: 0.00
[1]; 30 mg once daily
  Count of Gd-enhancing T1-hyperintense lesions, observed mean (SD): 1.18 (4.87)
[1]; [8]
  Total Gd-enhancing T1-hyperintense lesion count, Mean: 0.29
  Total Gd-enhancing T1-hyperintense lesion count, Median: 0.00
[1]; 60 mg once daily
  Count of Gd-enhancing T1-hyperintense lesions, observed mean (SD): 0.29 (0.86)
[1]; 60 mg, end of 12 weeks of treatment, 27 of 31 with evaluable MRI
  Participants with no Gd-enhancing T1-hyperintense lesions: 87.1%
[1]; any of the doses tested (5, 15, 30, 60 mg), 12 weeks
  Relative reduction in total count of Gd-enhancing T1-hyperintense lesions relative to placebo: No statistically significant relative reduction
CYP2C8
  Substrate of CYP2C8 isoenzyme: substrate
[2]; 5/60 mg, Week 0
  Volume of new or enlarging T2 lesions, Median: 0.09 cm³
  Volume of new or enlarging T2 lesions, Mean (SD): 1.28 (2.57)
[2]; 5/60 mg, Week 12
  Volume of new or enlarging T2 lesions, Median: 0.2 cm³
  Volume of new or enlarging T2 lesions, Mean (SD): 1.05 (1.70)
[2]; 15/60 mg, Week 0
  Volume of new or enlarging T2 lesions, Median: 0.08 cm³
  Volume of new or enlarging T2 lesions, Mean (SD): 0.72 (1.86)
[2]; 15/60 mg, Week 12
  Volume of new or enlarging T2 lesions, Median: 0.2 cm³
  Volume of new or enlarging T2 lesions, Mean (SD): 1.09 (1.61)
[2]; 30/60 mg, Week 0
  Volume of new or enlarging T2 lesions, Median: 0 cm³
  Volume of new or enlarging T2 lesions, Mean (SD): 0.48 (1.59)
[2]; 30/60 mg, Week 12
  Volume of new or enlarging T2 lesions, Median: 0.04 cm³
  Volume of new or enlarging T2 lesions, Mean (SD): 0.69 (1.30)
[2]; 60/60 mg arm
  T2 lesion volume change, W96 vs baseline, mean±SD: 0.38±2.11 cm3
[2]; 60/60 mg, Week 0
  Volume of new or enlarging T2 lesions, Median: 0 cm³
  Volume of new or enlarging T2 lesions, Mean (SD): 0.18 (0.38)
[2]; 60/60 mg, Week 12
  Volume of new or enlarging T2 lesions, Median: 0.06 cm³
  Volume of new or enlarging T2 lesions, Mean (SD): 0.26 (0.48)
[2]; All (N = 125), Week 0
  Volume of new or enlarging T2 lesions, Median: 0 cm³
  Volume of new or enlarging T2 lesions, Mean (SD): 0.67 (1.81)
[2]; All (N = 125), Week 12
  Volume of new or enlarging T2 lesions, Median: 0.12 cm³
  Volume of new or enlarging T2 lesions, Mean (SD): 0.80 (1.39)
[3]; 5/60 mg, Week 0
  Number of new T1 non-enhancing (hypointense) lesions, Mean (SD): 0.23 (0.43)
  Number of new T1 non-enhancing (hypointense) lesions, Median: 0.00
[3]; 5/60 mg, Week 12
  Number of new T1 non-enhancing (hypointense) lesions, Mean (SD): 0.19 (0.60)
  Number of new T1 non-enhancing (hypointense) lesions, Median: 0.00
[3]; 15/60 mg, Week 0
  Number of new T1 non-enhancing (hypointense) lesions, Mean (SD): 0.61 (1.45)
  Number of new T1 non-enhancing (hypointense) lesions, Median: 0.00
[3]; 15/60 mg, Week 12
  Number of new T1 non-enhancing (hypointense) lesions, Mean (SD): 0.26 (0.73)
  Number of new T1 non-enhancing (hypointense) lesions, Median: 0.00
[3]; 30/60 mg, Week 0
  Number of new T1 non-enhancing (hypointense) lesions, Mean (SD): 0.31 (1.09)
  Number of new T1 non-enhancing (hypointense) lesions, Median: 0.00
[3]; 30/60 mg, Week 12
  Number of new T1 non-enhancing (hypointense) lesions, Mean (SD): 0.09 (0.39)
  Number of new T1 non-enhancing (hypointense) lesions, Median: 0.00
[3]; 60/60 mg, Week 0
  Number of new T1 non-enhancing (hypointense) lesions, Mean (SD): 0.06 (0.36)
  Number of new T1 non-enhancing (hypointense) lesions, Median: 0.00
[3]; 60/60 mg, Week 12
  Number of new T1 non-enhancing (hypointense) lesions, Mean (SD): 0.03 (0.18)
  Number of new T1 non-enhancing (hypointense) lesions, Median: 0.00
[3]; All (N = 125), Week 0
  Number of new T1 non-enhancing (hypointense) lesions, Mean (SD): 0.30 (0.96)
  Number of new T1 non-enhancing (hypointense) lesions, Median: 0.00
[3]; All (N = 125), Week 12
  Number of new T1 non-enhancing (hypointense) lesions, Mean (SD): 0.14 (0.52)
  Number of new T1 non-enhancing (hypointense) lesions, Median: 0.00
CD19+ B-cell
  Dose at which the dose-response for the increase in circulating B-cells is maximal: approximately 30 mg once daily
CD19+ B-cell; observed maximally at Day 4
  Dose-dependent increase of absolute CD19+ B-cell counts relative to baseline: up to 80%
Patients with RMS
  Course of the elevation of liver enzymes after discontinuation: reversible
  Drug-induced liver injury: identified
[4]; 5/60 mg, Week 0
  Number of new or enlarging T2 lesions, Mean (SD): 3.97 (8.47)
  Number of new or enlarging T2 lesions, Median: 0.00
[4]; 5/60 mg, Week 12
  Number of new or enlarging T2 lesions, Mean (SD): 1.68 (3.49)
  Number of new or enlarging T2 lesions, Median: 0.00
[4]; 15/60 mg, Week 0
  Number of new or enlarging T2 lesions, Mean (SD): 3.52 (6.51)
  Number of new or enlarging T2 lesions, Median: 1.00
[4]; 15/60 mg, Week 12
  Number of new or enlarging T2 lesions, Mean (SD): 1.32 (1.83)
  Number of new or enlarging T2 lesions, Median: 1.00
[4]; 30/60 mg, Week 0
  Number of new or enlarging T2 lesions, Mean (SD): 3.41 (7.32)
  Number of new or enlarging T2 lesions, Median: 0.00
[4]; 30/60 mg, Week 12
  Number of new or enlarging T2 lesions, Mean (SD): 1.34 (4.97)
  Number of new or enlarging T2 lesions, Median: 0.00
[4]; 60/60 mg, LTS through W96
  New/enlarging T2 lesion counts: remained low
[4]; 60/60 mg, Week 0
  Number of new or enlarging T2 lesions, Mean (SD): 1.10 (1.87)
  Number of new or enlarging T2 lesions, Median: 0.00
[4]; 60/60 mg, Week 12
  Number of new or enlarging T2 lesions, Mean (SD): 0.29 (0.69)
  Number of new or enlarging T2 lesions, Median: 0.00
[4]; All (N = 125), Week 0
  Number of new or enlarging T2 lesions, Mean (SD): 3.00 (6.56)
  Number of new or enlarging T2 lesions, Median: 0.00
[4]; All (N = 125), Week 12
  Number of new or enlarging T2 lesions, Mean (SD): 1.16 (3.21)
  Number of new or enlarging T2 lesions, Median: 0.00
